Measured values taken from paper PMC9736855, “Discovery of 3-Amino-1H-pyrazole-Based Kinase Inhibitors to Illuminate the Understudied PCTAIRE Family” (International Journal of Molecular Sciences, 2022).

Key:
[1] = test system: RPS6KA1; experiment: DSF; format: binding;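 note: compound tested at 10 µM with 2 µM protein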
Experimental: (§2) Recombinant protein kinase domains with a concentration of 2 μM were mixed with a 10 μM compound solution in DMSO, 20 mM HEPES, pH 7.5, and 500 mM NaCl. SYPRO Orange (5000×, Invitrogen) was added as a fluorescence probe (1 µl per mL). Subsequently, temperature-dependent protein unfolding profiles were measured, using the QuantStudio™ 5 realtime PCR machine (Thermo Fisher, Waltham, MA, USA). […] The temperature was raised with a step rate of 3 °C per minute. Data points were analyzed with the internal software (Thermal Shift SoftwareTM Version 1.4, Thermo Fisher) using the Boltzmann equation to determine the inflection point of the transition curve [56]. Differences in melting temperature are given as ΔTm values in °C. Measurements were performed in duplicates.

[2] = target: T1, DYRK2 (Homo sapiens, UniProt Q92630); experiment: DSF; format: binding
T1 construct: purchased in-house DSF panel (SGC Frankfurt)
T1 sequence (Q92630 1-601): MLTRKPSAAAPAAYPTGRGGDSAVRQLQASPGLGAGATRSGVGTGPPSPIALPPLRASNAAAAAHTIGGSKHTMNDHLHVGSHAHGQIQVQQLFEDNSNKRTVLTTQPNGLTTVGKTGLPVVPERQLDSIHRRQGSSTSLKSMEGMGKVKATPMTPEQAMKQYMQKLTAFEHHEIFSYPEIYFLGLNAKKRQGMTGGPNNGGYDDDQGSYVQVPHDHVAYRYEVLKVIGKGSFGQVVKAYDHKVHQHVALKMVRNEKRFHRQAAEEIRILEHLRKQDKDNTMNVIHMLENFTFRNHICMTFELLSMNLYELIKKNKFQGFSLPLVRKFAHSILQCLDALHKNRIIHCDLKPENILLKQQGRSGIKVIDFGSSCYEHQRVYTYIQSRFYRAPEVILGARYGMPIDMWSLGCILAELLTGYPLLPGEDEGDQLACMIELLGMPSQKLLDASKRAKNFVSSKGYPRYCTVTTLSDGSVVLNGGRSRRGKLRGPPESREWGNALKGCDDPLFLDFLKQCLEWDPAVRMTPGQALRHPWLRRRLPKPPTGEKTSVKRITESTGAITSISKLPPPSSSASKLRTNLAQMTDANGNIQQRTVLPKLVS
Experimental: as §2

[3] = target: T2, BRAF (Homo sapiens, UniProt P15056); experiment: DSF; format: binding
T2 construct: purchased in-house DSF panel (SGC Frankfurt)
T2 sequence (P15056 444-723): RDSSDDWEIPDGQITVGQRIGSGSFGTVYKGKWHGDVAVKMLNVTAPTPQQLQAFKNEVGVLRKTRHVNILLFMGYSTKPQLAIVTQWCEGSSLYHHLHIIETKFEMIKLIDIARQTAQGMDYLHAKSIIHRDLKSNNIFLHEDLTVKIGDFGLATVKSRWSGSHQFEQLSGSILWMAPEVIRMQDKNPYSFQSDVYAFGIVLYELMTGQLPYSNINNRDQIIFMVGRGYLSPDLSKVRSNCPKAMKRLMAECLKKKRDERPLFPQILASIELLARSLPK
Experimental: as §2

[4] = target: T3, CDK3/Cyclin E2 (Homo sapiens, UniProt Q00526); experiment: NanoBRET; format: cell-based; conditions: read-out: NanoBRET EC50 ± SEM CDK3/Cyclin E2
T3 construct: Full-length kinases were obtained as plasmids cloned in frame with a terminal NanoLuc-fusion; CCNE2: 'Promega', no number; host or cells: HEK293T
T3 sequence (Q00526 whole entry, the tested form may be a part): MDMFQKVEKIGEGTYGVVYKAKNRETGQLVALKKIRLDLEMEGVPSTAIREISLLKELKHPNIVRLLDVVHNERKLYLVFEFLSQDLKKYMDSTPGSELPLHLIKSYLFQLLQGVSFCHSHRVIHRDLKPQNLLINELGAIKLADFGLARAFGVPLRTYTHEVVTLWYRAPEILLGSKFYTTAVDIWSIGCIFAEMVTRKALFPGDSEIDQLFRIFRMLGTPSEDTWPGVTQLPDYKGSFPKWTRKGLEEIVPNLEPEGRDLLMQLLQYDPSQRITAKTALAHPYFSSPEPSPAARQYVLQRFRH
T3 sequence (O96020 whole entry partner, the tested form may be a part): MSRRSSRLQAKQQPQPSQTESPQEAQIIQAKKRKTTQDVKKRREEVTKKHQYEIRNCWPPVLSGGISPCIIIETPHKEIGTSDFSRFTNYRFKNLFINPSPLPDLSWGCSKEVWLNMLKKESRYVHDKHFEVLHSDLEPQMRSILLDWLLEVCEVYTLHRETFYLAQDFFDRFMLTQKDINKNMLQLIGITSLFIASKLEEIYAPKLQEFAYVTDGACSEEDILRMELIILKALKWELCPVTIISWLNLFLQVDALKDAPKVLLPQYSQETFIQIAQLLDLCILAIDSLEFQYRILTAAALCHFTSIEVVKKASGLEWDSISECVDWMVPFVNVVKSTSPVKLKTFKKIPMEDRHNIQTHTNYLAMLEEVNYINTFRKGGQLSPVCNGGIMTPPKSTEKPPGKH
Experimental: (§1) The assay was performed as described previously. In brief: Full-length kinases were obtained as plasmids cloned in frame with a terminal NanoLuc-fusion (Promega, Madison, WI, USA), as specified in table (Table S6). Plasmids were transfected into HEK293T cells using FuGENE HD (Promega, E2312) and proteins were allowed to express for 20h. Serially diluted inhibitor and NanoBRET Kinase Tracer (Promega) at a concentration determined previously as the KD,app (Table S5) were pipetted into white 384-well plates (Greiner 781207) using an Echo acoustic dispenser (Labcyte, San Jose, CA, USA). The corresponding protein-transfected cells were added and reseeded at a density of 2.5 × 10^5 cells/mL after trypsinization and resuspending in Opti-MEM without phenol red (Life Technologies, Carlsbad, CA, USA). The system was allowed to equilibrate for 2 h at 37 °C/5% CO2 prior to BRET measurements. To measure BRET, NanoBRET NanoGlo Substrate + Extracellular NanoLuc Inhibitor (Promega, N2540) was added as per the manufacturer’s protocol, and filtered luminescence was measured on a PHERAstar plate reader (BMG Labtech, Ortenberg, Germany) equipped with a luminescence filter pair (450 nm BP filter (donor) and 610 nm LP filter (acceptor)). Competitive displacement data were then graphed using GraphPad Prism 9 software using a normalized 3-parameter curve fit with the following equation: Y = 100/(1 + 10^(X–LogEC50)).

[5] = target: T4, CDK4/Cyclin D3 (Homo sapiens, UniProt P11802); experiment: NanoBRET; format: cell-based; conditions: read-out: NanoBRET EC50 ± SEM CDK4/Cyclin D3
T4 construct: Full-length kinases were obtained as plasmids cloned in frame with a terminal NanoLuc-fusion; CS1810C87 (CCND3); host or cells: HEK293T
Experimental: as §1

[6] = target: CDK20/Cyclin H (Homo sapiens, UniProt Q8IZL9); experiment: NanoBRET; format: cell-based; conditions: read-out: NanoBRET EC50 ± SEM CDK20/Cyclin H
Chain of CDK20/Cyclin H (Q8IZL9 whole entry): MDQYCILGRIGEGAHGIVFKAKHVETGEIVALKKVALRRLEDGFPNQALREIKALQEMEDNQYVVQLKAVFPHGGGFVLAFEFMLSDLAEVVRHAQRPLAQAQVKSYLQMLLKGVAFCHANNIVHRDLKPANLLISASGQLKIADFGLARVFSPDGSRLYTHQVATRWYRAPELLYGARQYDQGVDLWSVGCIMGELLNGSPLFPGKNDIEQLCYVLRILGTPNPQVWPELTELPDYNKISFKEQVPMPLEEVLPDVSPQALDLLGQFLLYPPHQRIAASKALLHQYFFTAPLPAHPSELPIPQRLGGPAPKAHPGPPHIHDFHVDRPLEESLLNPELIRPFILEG
Chain of CDK20/Cyclin H (P51946 whole entry partner): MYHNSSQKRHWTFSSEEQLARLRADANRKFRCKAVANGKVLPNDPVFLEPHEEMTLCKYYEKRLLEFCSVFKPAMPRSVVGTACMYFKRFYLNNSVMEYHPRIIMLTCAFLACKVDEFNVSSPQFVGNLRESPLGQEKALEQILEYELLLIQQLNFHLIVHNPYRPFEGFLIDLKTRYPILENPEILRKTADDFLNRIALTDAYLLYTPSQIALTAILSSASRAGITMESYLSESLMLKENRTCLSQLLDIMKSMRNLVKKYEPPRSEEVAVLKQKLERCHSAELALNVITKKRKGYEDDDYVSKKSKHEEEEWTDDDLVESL
Experimental: as §1

[7] = target: T5, CDK2/Cyclin A2 (Homo sapiens, UniProt P24941); experiment: NanoBRET; format: cell-based; conditions: read-out: NanoBRET EC50 ± SEM CDK2/Cyclin A2
T5 construct: Full-length kinases were obtained as plasmids cloned in frame with a terminal NanoLuc-fusion; CCNA2: 'Promega', no number; host or cells: HEK293T
Experimental: as §1

[8] = target: T6, CDK9/Cyclin K (Homo sapiens, UniProt P50750); experiment: NanoBRET; format: cell-based; conditions: read-out: NanoBRET EC50 ± SEM CDK9/Cyclin K
T6 construct: Full-length kinases were obtained as plasmids cloned in frame with a terminal NanoLuc-fusion; CS1810C93 (CCNK); host or cells: HEK293T
T6 sequence (P50750 whole entry, the tested form may be a part): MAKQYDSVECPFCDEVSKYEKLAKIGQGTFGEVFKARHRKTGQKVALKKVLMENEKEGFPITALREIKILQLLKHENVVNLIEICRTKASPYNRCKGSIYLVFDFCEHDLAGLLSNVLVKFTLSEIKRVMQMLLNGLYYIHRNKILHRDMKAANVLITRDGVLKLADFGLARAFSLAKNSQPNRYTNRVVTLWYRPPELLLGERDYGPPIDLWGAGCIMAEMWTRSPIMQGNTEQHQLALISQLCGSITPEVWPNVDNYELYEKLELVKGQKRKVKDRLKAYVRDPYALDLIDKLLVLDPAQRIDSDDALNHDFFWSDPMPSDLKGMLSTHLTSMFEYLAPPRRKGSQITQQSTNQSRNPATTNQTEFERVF
Experimental: as §1

[9] = target: T7, CDK1/Cyclin E1 (Homo sapiens, UniProt P06493); experiment: NanoBRET; format: cell-based; conditions: read-out: NanoBRET EC50 ± SEM CDK1/Cyclin E1
T7 construct: Full-length kinases were obtained as plasmids cloned in frame with a terminal NanoLuc-fusion; CS1810C171 (CCNE1); host or cells: HEK293T
T7 sequence (P06493 whole entry, the tested form may be a part): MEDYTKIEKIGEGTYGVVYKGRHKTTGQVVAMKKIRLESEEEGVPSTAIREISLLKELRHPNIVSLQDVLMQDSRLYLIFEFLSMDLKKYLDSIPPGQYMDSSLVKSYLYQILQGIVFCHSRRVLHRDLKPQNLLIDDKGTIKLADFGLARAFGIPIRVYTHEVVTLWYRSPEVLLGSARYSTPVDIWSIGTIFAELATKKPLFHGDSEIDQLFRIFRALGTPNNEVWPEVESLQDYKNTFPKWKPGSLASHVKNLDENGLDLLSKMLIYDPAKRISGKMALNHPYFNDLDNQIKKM
Experimental: as §1

[10] = target: T8, CDK3/Cyclin E1 (Homo sapiens, UniProt Q00526); experiment: NanoBRET; format: cell-based; conditions: read-out: NanoBRET EC50 ± SEM CDK3/Cyclin E1
T8 construct: Full-length kinases were obtained as plasmids cloned in frame with a terminal NanoLuc-fusion; CS1810C171 (CCNE1); host or cells: HEK293T
T8 sequence (Q00526 whole entry, the tested form may be a part): as the sequence (Q00526 whole entry, the tested form may be a part) above
T8 sequence (P24864 whole entry partner, the tested form may be a part): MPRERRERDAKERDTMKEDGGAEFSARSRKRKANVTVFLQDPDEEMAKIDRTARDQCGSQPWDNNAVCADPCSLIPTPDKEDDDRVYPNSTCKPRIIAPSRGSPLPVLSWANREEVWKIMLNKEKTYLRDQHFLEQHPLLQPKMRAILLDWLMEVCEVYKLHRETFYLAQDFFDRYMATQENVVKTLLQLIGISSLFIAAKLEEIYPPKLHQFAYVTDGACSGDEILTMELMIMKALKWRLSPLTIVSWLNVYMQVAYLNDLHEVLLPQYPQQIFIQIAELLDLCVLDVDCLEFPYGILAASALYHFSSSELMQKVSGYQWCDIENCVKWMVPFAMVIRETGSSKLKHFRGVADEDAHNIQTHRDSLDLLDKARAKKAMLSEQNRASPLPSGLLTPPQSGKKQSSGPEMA
Experimental: as §1

[11] = target: T9, CDK2/Cyclin D1 (Homo sapiens, UniProt P24941); experiment: NanoBRET; format: cell-based; conditions: read-out: NanoBRET EC50 ± SEM CDK2/Cyclin D1
T9 construct: Full-length kinases were obtained as plasmids cloned in frame with a terminal NanoLuc-fusion; CS1810C118 (CCND1); host or cells: HEK293T
Experimental: as §1

[12] = target: T10, CDK15/Cyclin Y (Homo sapiens, UniProt Q96Q40); experiment: NanoBRET; format: cell-based; conditions: read-out: NanoBRET EC50 ± SEM CDK15/Cyclin Y
T10 construct: Full-length kinases were obtained as plasmids cloned in frame with a terminal NanoLuc-fusion; CS1810C178 (CCNY); host or cells: HEK293T
T10 sequence (Q96Q40 whole entry, the tested form may be a part): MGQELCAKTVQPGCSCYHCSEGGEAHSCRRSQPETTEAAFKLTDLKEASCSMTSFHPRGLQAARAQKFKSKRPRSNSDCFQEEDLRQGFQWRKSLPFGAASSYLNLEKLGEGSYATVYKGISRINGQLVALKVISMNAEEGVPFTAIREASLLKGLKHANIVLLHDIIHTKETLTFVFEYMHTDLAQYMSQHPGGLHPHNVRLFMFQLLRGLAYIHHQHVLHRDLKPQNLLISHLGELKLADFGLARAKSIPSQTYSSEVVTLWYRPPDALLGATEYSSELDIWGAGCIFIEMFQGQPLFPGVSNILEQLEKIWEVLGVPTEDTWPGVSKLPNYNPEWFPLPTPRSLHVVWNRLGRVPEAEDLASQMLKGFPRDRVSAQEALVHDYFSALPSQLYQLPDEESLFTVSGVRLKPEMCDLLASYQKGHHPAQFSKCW
T10 sequence (Q8ND76 2-341 partner limits assumed): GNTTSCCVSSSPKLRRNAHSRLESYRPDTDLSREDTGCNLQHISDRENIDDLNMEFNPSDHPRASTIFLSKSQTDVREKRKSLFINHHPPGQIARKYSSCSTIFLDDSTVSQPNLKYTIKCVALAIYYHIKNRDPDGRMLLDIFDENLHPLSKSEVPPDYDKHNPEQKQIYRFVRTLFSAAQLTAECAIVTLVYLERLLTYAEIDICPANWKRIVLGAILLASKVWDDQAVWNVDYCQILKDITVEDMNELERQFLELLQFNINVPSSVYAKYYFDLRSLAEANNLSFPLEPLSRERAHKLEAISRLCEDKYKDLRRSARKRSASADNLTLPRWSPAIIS
Experimental: as §1

[13] = target: T11, CDK4/Cyclin D1 (Homo sapiens, UniProt P11802); experiment: NanoBRET; format: cell-based; conditions: read-out: NanoBRET EC50 ± SEM CDK4/Cyclin D1
T11 construct: Full-length kinases were obtained as plasmids cloned in frame with a terminal NanoLuc-fusion; CS1810C118 (CCND1); host or cells: HEK293T
T11 sequence (P11802 whole entry, the tested form may be a part): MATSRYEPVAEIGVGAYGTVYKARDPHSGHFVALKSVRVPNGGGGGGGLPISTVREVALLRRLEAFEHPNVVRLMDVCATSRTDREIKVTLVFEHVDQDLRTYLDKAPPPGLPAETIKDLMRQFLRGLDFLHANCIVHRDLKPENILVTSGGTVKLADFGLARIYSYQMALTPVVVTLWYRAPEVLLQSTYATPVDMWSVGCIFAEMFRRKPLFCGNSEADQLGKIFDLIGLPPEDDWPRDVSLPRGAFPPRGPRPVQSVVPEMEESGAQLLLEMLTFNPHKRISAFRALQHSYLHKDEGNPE
T11 sequence (P24385 whole entry partner, the tested form may be a part): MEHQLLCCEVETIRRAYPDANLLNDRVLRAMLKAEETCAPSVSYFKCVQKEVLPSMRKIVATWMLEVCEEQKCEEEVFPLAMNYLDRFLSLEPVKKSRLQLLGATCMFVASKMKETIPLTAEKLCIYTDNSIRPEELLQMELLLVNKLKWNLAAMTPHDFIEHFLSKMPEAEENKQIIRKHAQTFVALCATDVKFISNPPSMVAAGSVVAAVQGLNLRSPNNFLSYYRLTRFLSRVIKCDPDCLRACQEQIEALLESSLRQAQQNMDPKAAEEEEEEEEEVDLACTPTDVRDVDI
Experimental: as §1

[14] = target: T12, MAPK10 (Homo sapiens, UniProt P53779); experiment: DSF; format: binding;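 note: compound tested at 10 µM with 2 µM protein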
T12 construct: purchased in-house DSF panel (SGC Frankfurt)
T12 sequence (P53779 whole entry): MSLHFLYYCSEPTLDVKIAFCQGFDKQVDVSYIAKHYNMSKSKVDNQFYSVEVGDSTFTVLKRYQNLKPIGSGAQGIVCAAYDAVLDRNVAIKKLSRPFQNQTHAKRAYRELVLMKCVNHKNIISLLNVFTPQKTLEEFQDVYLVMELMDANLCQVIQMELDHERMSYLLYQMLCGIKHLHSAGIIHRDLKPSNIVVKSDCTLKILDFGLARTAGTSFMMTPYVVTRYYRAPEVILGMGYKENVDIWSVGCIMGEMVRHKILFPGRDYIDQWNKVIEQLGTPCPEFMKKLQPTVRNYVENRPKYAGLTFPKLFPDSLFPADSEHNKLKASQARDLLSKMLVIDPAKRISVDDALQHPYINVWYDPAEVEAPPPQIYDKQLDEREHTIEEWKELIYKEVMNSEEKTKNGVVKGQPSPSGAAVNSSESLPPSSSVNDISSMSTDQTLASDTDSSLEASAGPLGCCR
Experimental: as §2

Row | SMILES | ΔTm RPS6KA1 [1] | ΔTm DYRK2 [2] | ΔTm BRAF [3] | EC50 [4] | EC50 [5] | EC50 [6] | EC50 [7] | EC50 [8] | EC50 [9] | EC50 [10] | EC50 [11] | EC50 [12] | EC50 [13] | ΔTm MAPK10 [14]
1 | CC(C)OC(=O)c1cc(Nc2ccnc(NCc3ccc(NC(=O)OC(C)(C)C)cc3)n2)n[nH]1 [42d, isopropyl 3-((2-((4-((tert-butoxycarbonyl)amino)benzyl)amino)pyrimidin-4-yl)amino)-1H-pyrazole-5-carboxylate] | -0.3 °C | 0.5 °C | 0.4 °C | 26.9 ± 13.4 µM | 0.508 ± 0.0866 µM | 0.745 ± 0.35 µM | 2.84 ± 1.35 µM | 0.575 ± 0.157 µM | 0.2 ± 0.0428 µM | 1.27 ± 0.522 µM | 4.86 ± 2.39 µM | 0.167 ± 0.0149 µM | 1.6 ± 0.409 µM | -3.0 °C
2 | CC(C)(C)OC(=O)Nc1ccc(CNc2nccc(Nc3cc(C(=O)OC(C)(C)C)[nH]n3)n2)cc1 [43d, tert-butyl 3-((2-((4-((tert-butoxycarbonyl)amino)benzyl)amino)pyrimidin-4-yl)amino)-1H-pyrazole-5-carboxylate] | 0.2 °C | 0.8 °C | 0.7 °C | 16.1 ± 7.62 µM | 0.908 ± 0.113 µM | 1.71 ± 0.222 µM | 1.52 ± 0.449 µM | 0.993 µM | 0.582 µM | 2.75 ± 0.959 µM | 3.07 ± 1.86 µM | 0.302 µM | 2.14 ± 0.75 µM | -1.6 °C
3 | COC(=O)c1cc(Nc2ccnc(NCCOCCNC(=O)OC(C)(C)C)n2)[nH]n1 [21d, methyl 5-((2-((2-(2-((tert-butoxycarbonyl)amino)ethoxy)ethyl)amino)pyrimidin-4-yl)amino)-1H-pyrazole-3-carboxylate] | 0.5 °C | 2.1 °C | 0.9 °C |  |  |  |  |  |  |  |  |  |  | 2.9 °C
4 | N#CCc1ccc(Nc2nccc(Nc3cc(C4CC4)[nH]n3)n2)cc1 [compound 1, reference compound] | 5.1 °C | 11.0 °C | 4.6 °C | 0.0384 ± 0.0304 µM | 0.0321 ± 0.0031 µM | 2.66 ± 0.568 µM | 0.0281 ± 0.0075 µM | 0.0174 ± 0.0054 µM | 0.0052 ± 0.0025 µM | 0.0118 ± 0.0045 µM | 0.0386 ± 0.0173 µM | 0.0934 ± 0.0417 µM | 0.0936 ± 0.0236 µM | 7.2 °C
5 | COC(=O)c1cc(Nc2ccnc(NCc3ccc(NC(=O)OC(C)(C)C)cc3)n2)[nH]n1 [21i, methyl 5-((2-((4-((tert-butoxycarbonyl)amino)benzyl)amino)pyrimidin-4-yl)amino)-1H-pyrazole-3-carboxylate] | 1.0 °C | 1.1 °C | 1.0 °C | 38.8 ± 4.64 µM | 6.78 ± 1.46 µM | 8.42 ± 0.629 µM | 11.7 ± 2.33 µM | 7 ± 2.12 µM | 6.42 ± 3.46 µM | 12.4 ± 4.61 µM | 33.5 ± 1.52 µM | 2.09 ± 0.496 µM | 10.9 ± 3.92 µM | 1.8 °C
